The test concerns human PBMCs. In words: Cytokine secretion from human PBMCs, homeostatic and Poly (I:C) challenged conditions (Example 6). The format is cell-based. The note with it: homeostatic (unchallenged) conditions, 20 hrs; bacteria grown on 2′FL; 2′FL 2%.

Take 2′-Fucosyllactose [2′FL]: the IFN-γ secretion entry is given as “did not induce secretion” and the IL-10 secretion result is reported as “did not induce secretion”.
